# In ChEMBL document CHEMBL3822396 (J Med Chem, 2016):
# The source made the active and inactive calls. No cut-off for these calls is given here.
# Experiments:
# [1] = Permeability of the compound; format: ADME; conditions: not told; read-out: permeability
# [2] = biological target: Vascular endothelial growth factor receptor 2 (Homo sapiens, UniProt P35968)
# [3] = biological target: Mitogen-activated protein kinase 14 (Homo sapiens, UniProt Q16539)
# Intestinal mucosa [4] = test: Inhibition of IL6 production in intestinal mucosa derived from ulcerative colitis patient at 1 uM measured after 24 hrs by sandwich ELISA; format: functional, tissue-based; conditions: Homo sapiens
# Intestinal mucosa [5] = test: Inhibition of IL6 production in intestinal mucosa derived from Crohn's disease patient at 1 uM measured after 24 hrs by sandwich ELISA; format: functional, tissue-based; conditions: Homo sapiens
# Intestinal mucosa [6] = test: Inhibition of TNFalpha production in intestinal mucosa derived from ulcerative colitis patient at 1 uM measured after 24 hrs by sandwich ELISA; format: functional, tissue-based; conditions: Homo sapiens
# Intestinal mucosa [7] = test: Inhibition of TNFalpha production in intestinal mucosa derived from Crohn's disease patient at 1 uM measured after 24 hrs by sandwich ELISA; format: functional, tissue-based; conditions: Homo sapiens
# [8] = AUC in Sprague-Dawley rat at 2 mg/kg, po administered through cassette dosing by LC-MS/MS analysis; format: ADME, organism-based; conditions: in vivo
# [9] = Cmax in Sprague-Dawley rat at 2 mg/kg, po administered through cassette dosing as by LC-MS/MS analysis; format: ADME, organism-based; parameters: dose 2 mg/kg, route oral; conditions: in vivo
# Vascular endothelial growth factor receptor 2, sequence (P35968 whole entry): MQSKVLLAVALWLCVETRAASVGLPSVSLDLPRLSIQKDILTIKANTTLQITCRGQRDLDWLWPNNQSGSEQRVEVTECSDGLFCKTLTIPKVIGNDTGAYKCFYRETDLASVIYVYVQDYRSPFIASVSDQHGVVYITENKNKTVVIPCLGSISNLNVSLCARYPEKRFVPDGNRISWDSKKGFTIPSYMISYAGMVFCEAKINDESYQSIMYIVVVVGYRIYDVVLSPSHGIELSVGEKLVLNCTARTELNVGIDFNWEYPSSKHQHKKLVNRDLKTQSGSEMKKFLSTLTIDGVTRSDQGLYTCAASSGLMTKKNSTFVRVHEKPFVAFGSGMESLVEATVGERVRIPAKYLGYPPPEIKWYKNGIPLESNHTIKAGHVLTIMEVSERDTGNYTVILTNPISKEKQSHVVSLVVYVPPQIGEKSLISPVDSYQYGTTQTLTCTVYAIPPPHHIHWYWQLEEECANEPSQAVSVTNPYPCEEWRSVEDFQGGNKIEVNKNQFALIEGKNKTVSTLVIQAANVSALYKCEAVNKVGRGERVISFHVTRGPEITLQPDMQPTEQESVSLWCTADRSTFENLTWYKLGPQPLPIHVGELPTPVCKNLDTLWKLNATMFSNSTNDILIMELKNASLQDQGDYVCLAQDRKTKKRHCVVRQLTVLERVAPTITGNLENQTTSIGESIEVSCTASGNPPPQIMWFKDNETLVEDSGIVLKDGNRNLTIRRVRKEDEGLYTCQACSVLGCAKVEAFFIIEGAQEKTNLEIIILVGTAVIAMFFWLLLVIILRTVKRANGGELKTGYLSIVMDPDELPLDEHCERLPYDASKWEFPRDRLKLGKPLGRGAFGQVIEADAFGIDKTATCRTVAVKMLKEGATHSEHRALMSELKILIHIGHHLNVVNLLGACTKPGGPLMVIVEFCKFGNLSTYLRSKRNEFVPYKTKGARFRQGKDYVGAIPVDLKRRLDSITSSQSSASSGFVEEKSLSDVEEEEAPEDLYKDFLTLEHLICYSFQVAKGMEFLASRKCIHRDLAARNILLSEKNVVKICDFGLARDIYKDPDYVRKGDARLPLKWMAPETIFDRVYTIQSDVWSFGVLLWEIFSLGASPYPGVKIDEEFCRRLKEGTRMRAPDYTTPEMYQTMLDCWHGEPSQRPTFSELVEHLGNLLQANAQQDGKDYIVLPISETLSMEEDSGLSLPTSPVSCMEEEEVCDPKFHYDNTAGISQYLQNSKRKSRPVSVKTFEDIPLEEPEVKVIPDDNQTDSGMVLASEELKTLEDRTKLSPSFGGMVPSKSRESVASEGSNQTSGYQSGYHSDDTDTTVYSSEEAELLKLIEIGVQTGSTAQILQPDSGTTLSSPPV
# Mitogen-activated protein kinase 14, sequence (Q16539 whole entry): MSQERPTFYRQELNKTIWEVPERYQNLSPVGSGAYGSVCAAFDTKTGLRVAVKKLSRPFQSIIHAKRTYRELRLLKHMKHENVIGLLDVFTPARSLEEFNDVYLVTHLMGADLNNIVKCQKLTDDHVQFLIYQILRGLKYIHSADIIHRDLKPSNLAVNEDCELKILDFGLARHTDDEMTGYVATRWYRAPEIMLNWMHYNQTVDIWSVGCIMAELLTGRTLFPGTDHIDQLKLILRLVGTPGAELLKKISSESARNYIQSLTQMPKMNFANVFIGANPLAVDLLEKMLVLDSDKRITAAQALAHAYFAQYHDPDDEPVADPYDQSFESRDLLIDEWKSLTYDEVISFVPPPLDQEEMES
structure (smiles),measurement,setting,value
COc1ccc2nccc(Nc3cc(O)ccc3C)c2c1,Papp,[1],23 ×10⁻⁶ cm/s
Cc1ccc(O)cc1Nc1ccnc2ccccc12,Papp,[1],25 ×10⁻⁶ cm/s
Cc1ccc(O)cc1Nc1ccnc2ccc(C(=O)NCC3CCOCC3)cc12,IC50,[2],> 5 µM
same,IC50,[3],> 5 µM
same,Papp,[1],1.5 ×10⁻⁶ cm/s
C[C@]12C=CC(=O)C=C1CC[C@@H]1[C@@H]2[C@@H](O)C[C@@]2(C)[C@H]1CC[C@]2(O)C(=O)CO,inhibition,Intestinal mucosa [4],Active
same,inhibition,Intestinal mucosa [5],Active
same,inhibition,Intestinal mucosa [6],Active
same,inhibition,Intestinal mucosa [7],Active
CC(C)S(=O)(=O)c1ccc2nccc(Nc3n[nH]c4ccc(F)cc34)c2c1,IC50,[2],> 5 µM
same,AUC,[8],1100 ng·h/mL
same,IC50,[3],> 5 µM
same,Cmax,[9],370 ng/mL
CS(=O)(=O)c1ccc2nccc(Nc3n[nH]c4ccc(F)cc34)c2c1,AUC,[8],1700 ng·h/mL
same,Cmax,[9],500 ng/mL
Cc1ccc(O)cc1Nc1ccnc2ccc(S(C)(=O)=O)cc12 [GW559768X],Papp,[1],7.9 ×10⁻⁶ cm/s
Cc1ccc(O)cc1Nc1ccnc2ccc(-c3cccnc3)cc12,Papp,[1],23 ×10⁻⁶ cm/s
Cc1ccc(O)cc1Nc1ccnc2ccc(C(F)(F)F)cc12,Papp,[1],49 ×10⁻⁶ cm/s
